Literature values as cited in publication PMC2912428 (Bioconjugate chemistry, 2010).

System: SAv-Y43A
Details: SAv-Y43A vs WT SAv ref 21

O=C(O)CCCC[C@@H]1SC[C@@H]2NC(=O)N[C@@H]21 [biotin, D-biotin]
lower affinity of SAv-Y43A than wild-type SAv: 67 fold
